According to US9315459B2, “Crystalline forms of 4-[2-(4-methylphenylsulfanyl)-phenyl] piperidine” (priority 2006, dated 2016):

Tests used:
human 5-HT2A receptors = molecular target: T1, human 5-HT2A receptors (Homo sapiens, UniProt P28223); experiment: Functional assay, 5-HT evoked release of Ca2+ in CHO cells expressing human 5-HT2A receptors (FLIPR); type: cell-based; conditions: mammalian cells expressing human 5-HT2A
T1 construct: expressed in transfected cells; host or cells: CHO cells (functional assay)

[1] = system: extracellular levels of acetylcholine; experiment: Microdialysis, extracellular acetylcholine in prefrontal cortex of freely-moving rats (Example 2F); type: in vivo, rat; conditions: Wistar rats, s.c., FIG. 24
Procedure: The experiment was designed to evaluate the effects of compounds of the present invention on extracellular levels of acetylcholine in the prefrontal cortex of freely-moving rats.
Male Wistar rats (280-350 g; Harlan, Zeist, The Netherlands) were used for the experiments. Rats were individually housed in plastic cages (30×30×40 cm) and had ad libitum access to food and water.
Rats were anesthetized using isoflurane (2%, 400 mL/min N2O, 400 ml/min O2). Lidocain (10% m/v) was used for local anesthesia. […]
Experiments were carried out 24-48 hours after surgery. […] Samples were collected by an automated fraction collector (CMA 142), and stored at −80° C. until analyzed. […]
Concentrations of acetylcholine were determined by HPLC with tandem mass spectrometry (MS/MS) detection. […]
The LC/MS analyses were performed using an API 4000 MS/MS system consisting of an API 4000 MS/MS detector and a Turbo Ion Spray interface (both from Applied Biosystems, the Netherlands). […] Data were calibrated and quantitated using the Analyst™ data system (Applied Biosystem, version 1.2).
Two consecutive microdialysis samples with less then 50% variation were taken as baseline levels and set at 100%. Changes in acetylcholine concentration were expressed as percent of baseline within the same subject.

[2] = system: extracellular levels of acetylcholine; experiment: Microdialysis, extracellular acetylcholine in prefrontal cortex and ventral hippocampus of freely-moving rats (Example 2G); type: in vivo, rat; conditions: Sprague-Dawley rats, FIG. 25a+b
Procedure: The experiment was designed to evaluate the effects of compounds of the present invention on extracellular levels of acetylcholine in the prefrontal cortex and ventral hippocampus of freely-moving rats.
Male Sprague-Dawley rats, initially weighing 275-300 g, were used. The animals were housed under a 12-hr light/dark cycle under controlled conditions for regular in-door temperature (21±2° C.) and humidity (55±5%) with food and tap water available ad libitum.
Rats were anaesthetised with hypnorm/dormicum (2 ml/kg) and intracerebral guide cannulas (CMA/12) were stereotaxically implanted into the hippocampus, aiming to position the dialysis probe tip in the ventral hippocampus (co-ordinates: 5.6 mm posterior to bregma, lateral −5.0 mm, 7.0 mm ventral to dura or in the frontal cortex (co-ordinates: 3.2 mm anterior to bregma; lateral, 0.8 mm; 4.0 mm ventral to dura). Anchor screws and acrylic cement were used for fixation of the guide cannulas. The body temperature of the animals was monitored by rectal probe and maintained at 37° C. The rats were allowed to recover from surgery for 2 days, housed singly in cages. On the day of the experiment a microdialysis probe (CMA/12, 0.5 mm diameter, 3 mm length) was inserted through the guide cannula.
The probes were connected via a dual channel swivel to a microinjection pump. […]

T1 sequence (P28223 whole entry): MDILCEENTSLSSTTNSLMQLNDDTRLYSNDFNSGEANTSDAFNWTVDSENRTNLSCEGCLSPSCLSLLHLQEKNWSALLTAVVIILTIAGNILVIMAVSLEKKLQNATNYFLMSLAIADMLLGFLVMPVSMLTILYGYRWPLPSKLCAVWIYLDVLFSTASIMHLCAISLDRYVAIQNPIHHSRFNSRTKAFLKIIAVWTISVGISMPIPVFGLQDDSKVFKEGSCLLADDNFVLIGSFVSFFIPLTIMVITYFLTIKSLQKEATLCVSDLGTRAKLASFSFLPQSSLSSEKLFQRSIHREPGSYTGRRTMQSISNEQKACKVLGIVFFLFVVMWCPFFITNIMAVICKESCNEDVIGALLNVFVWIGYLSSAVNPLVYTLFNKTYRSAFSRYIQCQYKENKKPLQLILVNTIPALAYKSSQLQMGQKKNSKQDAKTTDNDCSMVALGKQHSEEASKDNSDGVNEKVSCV

- Mode of action at human 5-HT2A receptors (human 5-HT2A receptors): competitive antagonistic properties
SMILES: Cc1ccc(Sc2ccccc2C2CCNCC2)cc1 [compound I, 4-[2-(4-methylphenylsulfanyl)-phenyl]piperidine]
- Extracellular level of acetylcholine [1]: increase
- Extracellular level of acetylcholine [2]: increase
